This note sets out measurements from publication PMC12461739, “Multi-targeted azacoumarin–cyanocinnamate hybrids induce G2/M arrest and apoptosis via tubulin, and COX-2/VEGFR modulation: insights from in vitro mechanistic basis and in vivo validation” (RSC Medicinal Chemistry, 2025).

Read-outs that look alike come from different tables or passages of the source.

One series concerns MDA-MB 231 cells. The series can be described thus: MTT antiproliferative assay, MDA-MB 231. In kind it is cell-based, human. The settings on record: for IC50: Homo sapiens, MDA-MB-231, 48 h, MTT, 48 h treatment, read-out: IC50, antiproliferative activity toward MDA-MB 231. The protocol:
(§1) The cytotoxic effects of the synthesized compounds were evaluated using the MTT assay. MCF-7, MDA-MB 231 (human breast cancer), and MCF-10A (non-tumorigenic breast epithelial) cells were seeded (1–3 × 10^4 cells per well) and incubated for 24 hours at 37 °C in a humidified atmosphere containing 5% CO2.[74] Following incubation, cells were treated with serial dilutions of the test compounds prepared in DMSO. The final concentration of DMSO in all wells, including controls, was maintained below 0.5% v/v to avoid solvent-related cytotoxicity. Doxorubicin was used as a positive control for comparison of antiproliferative activity. Following 48 hours of treatment, the culture medium was gently removed, and each well received 20 μL of MTT reagent (5 mg mL^−1 in phosphate-buffered saline). The plates were incubated at 37 °C for 4 hours to facilitate the enzymatic reduction of MTT into formazan by metabolically active cells. After incubation, the solution was discarded, and 100 μL of dimethyl sulfoxide was added. The absorbance of each well was measured at 570 nm using a microplate spectrophotometer. Cell viability was determined by comparing absorbance values to those of the untreated controls and expressed as a percentage. GraphPad Prism software was used to plot dose–response curves and calculate IC50 values.

The test system of the next series is MCF-7 cells. Briefly: MTT antiproliferative assay, MCF-7. The settings on record: for IC50: MTT, 48 h treatment, read-out: IC50, antiproliferative activity toward MCF-7; for fold reduction of cytotoxic activity after acetylation of the hydroxyl group: MCF-7, vs parent compound (7 or 6a). Format: cell-based, human. On the procedure:
as §1
On the technique in general: Tetrazolium assays rely on reduction of a dye to a coloured formazan, in cell work by metabolically active cells.

Series [1] in a line: FRAP (ferric reducing antioxidant power) assay. The settings on record: 37 °C, 60 min. On the procedure:
The resulting Fe^2+ forms a colored complex with the FRAP chromogenic probe, which can be quantitatively measured. The reaction mixture was prepared by combining FRAP assay buffer, FRAP probe, and FeCl3 solution as per the manufacturer's protocol. […] Absorbance was measured at 594 nm using a microplate reader after incubation at 37 °C for 60 minutes. Antioxidant activity was determined by comparing the absorbance of the samples to a standard curve generated using known concentrations of the ferrous standard provided in the kit.

Series [2] in a line: MTT cytotoxicity assay, MCF-10A. The settings on record: human, MCF-10A non-tumorigenic breast epithelial cells, MTT, 48 h treatment, non-tumorigenic breast epithelial cells; read-out: IC50, cytotoxicity toward MCF-10A. In kind it is cell-based, human. The protocol:
as §1, with “MCF-7, MDA-MB 231 (human breast cancer), and MCF-10A (non-tumorigenic breast epithelial) cells were seeded (1–3 × 10^4 cells per well) and incubated for 24 hours at 37 °C in a humidified atmosphere containing 5% CO2.[74]” left out

Another series relates to MCF-10A cells. Briefly: MTT cytotoxicity assay, MCF-10A. Format: cell-based, human. The protocol: as §1, with “MCF-7, MDA-MB 231 (human breast cancer), and MCF-10A (non-tumorigenic breast epithelial) cells were seeded (1–3 × 10^4 cells per well) and incubated for 24 hours at 37 °C in a humidified atmosphere containing 5% CO2.[74]” left out

The term IC50 denotes the concentration that inhibits the measured activity by half. For the compound `CCOC(=O)/C(C#N)=C/c1ccc(Oc2c(C)c3cc(Br)c(O)c(Br)c3[nH]c2=O)c(OC)c1` [Compound 6a, ethyl (E)-2-cyano-3-(4-((6,8-dibromo-7-hydroxy-4-methyl-2-oxo-1,2-dihydroquinolin-3-yl)oxy)-3-methoxyphenyl)acrylate], the IC50 in the series with MDA-MB 231 cells turned out to be 19.6 ± 1.72 µM; in the series with MCF-7 cells (Homo sapiens, MCF7, 48 h), 26.6 ± 1.56 µM; with MCF-7 cells, 26.6 ± 1.56 µM.

For `CCOC(=O)/C(C#N)=C/c1cc(Br)c(Oc2c(C)c3cc(Br)c(O)c(Br)c3[nH]c2=O)c(Br)c1` [Compound 6b, ethyl (E)-2-cyano-3-(3,5-dibromo-4-((6,8-dibromo-7-hydroxy-4-methyl-2-oxo-1,2-dihydroquinolin-3-yl)oxy)phenyl)acrylate], the IC50 in the series with MDA-MB 231 cells came to 31.1 ± 1.87 µM; in the series on MCF-7 cells (Homo sapiens, MCF7, 48 h), 112 ± 6.57 µM; with MCF-7 cells it was 112 ± 6.57 µM. Besides, the “fold improvement in cytotoxicity in MDA-MB-231 compared to MCF-7” value with MDA-MB 231 cells (MDA-MB-231 vs MCF-7) is reported as around 3.6 fold.

Regarding `CCOC(=O)/C(C#N)=C/c1ccc(Oc2c(C)c3cc(Br)c(OC(C)=O)c(Br)c3[nH]c2=O)cc1` [Compound 8, ethyl (E)-3-(4-((7-acetoxy-6,8-dibromo-4-methyl-2-oxo-1,2-dihydroquinolin-3-yl)oxy)phenyl)-2-cyanoacrylate], the concentration for half-maximal inhibition (IC50) in the series on MDA-MB 231 cells amounted to 26.9 ± 0.79 µM; in the series with MCF-7 cells (Homo sapiens, MCF7, 48 h), 17.8 ± 1.05 µM; in the series on MCF-7 cells, 17.8 ± 1.05 µM. Further, in the series with MCF-7 cells, the “fold reduction of cytotoxic activity after acetylation of the hydroxyl group” value came out at 2.3 fold.

`CCOC(=O)/C(C#N)=C/c1ccc(Oc2c(C)c3cc(Br)c(OC(C)=O)c(Br)c3[nH]c2=O)c(OC)c1` [Compound 9, ethyl (E)-3-(4-((7-acetoxy-6,8-dibromo-4-methyl-2-oxo-1,2-dihydroquinolin-3-yl)oxy)-3-methoxyphenyl)-2-cyanoacrylate]: the half-inhibitory concentration (IC50) with MDA-MB 231 cells turned out to be 44.2 ± 2.96 µM; in the series on MCF-7 cells (Homo sapiens, MCF7, 48 h), 33.4 ± 1.96 µM; in the series on MCF-7 cells, 33.4 ± 1.96 µM. The “fold reduction of cytotoxic activity after acetylation of the hydroxyl group” value in the series with MCF-7 cells is 1.25 fold.

In series [1], `O=C1O[C@H]([C@@H](O)CO)C(O)=C1O` [ascorbic acid, reference compound] gave an IC50 of 110 ± 4.21 µM.

As for `COc1cccc2c1C(=O)c1c(O)c3c(c(O)c1C2=O)C[C@@](O)(C(=O)CO)C[C@@H]3O[C@H]1C[C@H](N)[C@H](O)[C@H](C)O1` [doxorubicin, reference compound], the IC50 is 8.4 ± 0.61 µM in the series on MDA-MB 231 cells; 12.6 ± 0.61 µM in the series with MCF-7 cells (Homo sapiens, MCF7, 48 h); 16.2 ± 0.55 µM with MCF-10A cells (MTT, 48 h treatment, non-tumorigenic breast epithelial cells, read-out: IC50, cytotoxicity toward MCF-10A). Further, the IC50 at 48 h in series [2] is 16.2 ± 0.55 µM. For the same compound, the “selectivity index toward breast cancer cells” value in the series on MCF-10A cells (MCF-10A vs MCF-7 / MDA-MB 231) worked out at 1.3.
